According to the Kinase Knowledgebase extract (Sharma et al. 2016):

target: PIK3CD (Human) (UniProt O00329); assay: Enzyme Assay
Sequence (O00329 whole entry, looked up): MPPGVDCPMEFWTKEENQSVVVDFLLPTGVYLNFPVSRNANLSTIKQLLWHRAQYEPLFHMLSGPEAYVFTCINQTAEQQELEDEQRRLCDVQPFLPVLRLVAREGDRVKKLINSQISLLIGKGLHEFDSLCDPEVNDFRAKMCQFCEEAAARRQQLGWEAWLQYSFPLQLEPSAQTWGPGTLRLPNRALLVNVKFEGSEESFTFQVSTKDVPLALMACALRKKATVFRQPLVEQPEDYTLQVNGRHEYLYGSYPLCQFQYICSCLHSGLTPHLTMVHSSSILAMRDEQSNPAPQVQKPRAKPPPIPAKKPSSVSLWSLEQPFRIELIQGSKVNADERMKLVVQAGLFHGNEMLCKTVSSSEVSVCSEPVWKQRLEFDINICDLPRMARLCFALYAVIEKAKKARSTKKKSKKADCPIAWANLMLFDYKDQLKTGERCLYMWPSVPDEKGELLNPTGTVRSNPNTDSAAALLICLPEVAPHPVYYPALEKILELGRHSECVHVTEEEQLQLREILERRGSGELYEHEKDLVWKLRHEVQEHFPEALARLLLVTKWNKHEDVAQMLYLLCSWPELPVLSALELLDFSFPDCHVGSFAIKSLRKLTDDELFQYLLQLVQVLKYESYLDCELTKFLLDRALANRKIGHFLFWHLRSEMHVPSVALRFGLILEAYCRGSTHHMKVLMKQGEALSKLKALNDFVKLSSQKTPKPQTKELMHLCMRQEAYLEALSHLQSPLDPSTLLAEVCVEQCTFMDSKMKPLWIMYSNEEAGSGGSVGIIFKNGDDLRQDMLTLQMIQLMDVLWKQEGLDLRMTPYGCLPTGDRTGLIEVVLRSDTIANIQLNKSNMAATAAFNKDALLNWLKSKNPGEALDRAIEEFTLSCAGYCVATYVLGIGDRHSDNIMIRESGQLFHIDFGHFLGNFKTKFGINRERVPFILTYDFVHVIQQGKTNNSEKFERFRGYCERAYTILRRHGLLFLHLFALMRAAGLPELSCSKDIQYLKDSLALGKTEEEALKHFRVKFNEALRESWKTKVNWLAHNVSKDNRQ

Compound | IC50 [nM]
CCn1ncc(-c2nc3c(O[C@H]4CCN(C(=O)c5nc(C(C)(C)O)no5)C4)ncnc3n2C)c1C | 110
Cn1c(-c2cnc(C(C)(C)C)s2)nc2c(O[C@H]3CCN(C(=O)OC(C)(C)C)C3)ncnc21 | 6.9
CCn1ncc(-c2nc3c(O[C@H]4CCN(C(=O)c5conc5C)C4)ncnc3n2C)c1C | 14
CCC(=O)N1CC[C@H](Oc2ncnc3c2nc(-c2cnc(OC)c(C(F)(F)F)c2)n3C)C1 | 7.8
CCn1ncc(-c2nc3c(O[C@H]4CCN(C(=O)c5cnn6cccnc56)C4)ncnc3n2C)c1C | 11
CCn1c(-c2cnc(C)nc2)nc2c(O[C@H]3CCN(C(=O)N4CCC(C)(C)C4)C3)ncnc21 | 3.8
CCn1c(-c2cnc(C)nc2)nc2c(OC3CCN(C(=O)N(C)c4ccccc4)CC3)ncnc21 | 46
CCn1ncc(-c2nc3c(O[C@H]4CCN(C(=O)c5cn[nH]c5)C4)ncnc3n2C)c1C | 16
Cn1c(-c2ccc3[nH]ncc3c2)nc2c(O[C@H]3CCN(C(=O)OC(C)(C)C)C3)ncnc21 | 35
CCn1ncc(-c2nc3c(O[C@H]4CCN(C(=O)c5cn(C)nn5)C4)ncnc3n2C)c1C | 5.2
CCC(=O)N1CC[C@H](Oc2ncnc3c2nc(-c2cnn(CC)c2C)n3CC(F)F)C1 | 3.1
Cc1ncc(-c2nc3c(O[C@H]4CCN(C(=O)OC(C)(C)C)C4)ncnc3n2C)cn1 | 99
CCn1c(-c2ccc(OC(F)F)nc2)nc2c(O[C@@H]3CCN(C(=O)C4CC4)C3)ncnc21 | 14
CCn1c(C(=O)NCC2CC2)nc2c(O[C@H]3CCN(C(=O)OC(C)(C)C)C3)ncnc21 | 150
Cn1c(-c2ccc(-n3cccn3)cc2)nc2c(O[C@H]3CCN(C(=O)OC(C)(C)C)C3)ncnc21 | 30
CCN(C)C(=O)N1CC[C@H](Oc2ncnc3c2nc(-c2cnc(C)nc2)n3CC)C1 | 10
CCC(=O)N1CC[C@H](Oc2ncnc3c2nc(-c2cnc(OC)c(NS(C)(=O)=O)c2)n3C)C1 | 2
COC1CC(c2nc3c(O[C@H]4CCN(C(=O)OC(C)(C)C)C4)ncnc3n2C)C1 (stereo not given in full) | 2100
CCn1ncc(-c2nc3c(O[C@H]4CCN(S(=O)(=O)c5cn(C)cn5)C4)ncnc3n2C)c1C | 1500
CCn1ncc(-c2nc3c(O[C@H]4CCN(C(=O)c5ccccn5)C4)ncnc3n2C)c1C | 27
CCC(=O)N1CC[C@H](Oc2ncnc3c2nc(-c2cnn(-c4ccccc4)c2)n3C)C1 | 6.5
CCn1ncc(-c2nc3c(O[C@H]4CCN(C(=O)c5cc(C)n(C)n5)C4)ncnc3n2C)c1C | 150
CCn1c(-c2cnc(C)nc2)nc2c(O[C@H]3CCN(c4ccccn4)C3)ncnc21 | 1.7

Compound | IC50 [nM]
CCC(=O)N1CC[C@H](Oc2ncnc3c2nc(-c2cnc(OC)c(C#N)c2)n3C)C1 | 8.4
CCn1c(-c2cnc(C)nc2)nc2c(O[C@H]3CCN(C(=O)N4CC(F)C4)C3)ncnc21 | 5.1
CCn1ncc(-c2nc3c(O[C@H]4CCN(C(=O)c5cc(C)[nH]n5)C4)ncnc3n2C)c1C | 28
Cn1c(-c2ccc(N3CCOCC3)nc2)nc2c(O[C@H]3CCN(C(=O)OC(C)(C)C)C3)ncnc21 | 4400
CCn1c(-c2cnc(OC)c(NS(C)(=O)=O)c2)nc2c(O[C@H]3CCN(C(=O)C4CC4)C3)ncnc21 | < 1
CCn1c(-c2cnc(OC)c(F)c2)nc2c(O[C@H]3CCN(C(=O)C(C)C)C3)ncnc21 | < 1
CCn1c(-c2cnc(C)nc2)nc2c(O[C@H]3CCN(C(=O)C4CC4)[C@@H]3C)ncnc21 | 2.8
CCn1c(-c2cnc(C)nc2)nc2c(O[C@@H]3CN(C(=O)OC(C)(C)C)CC3(F)F)ncnc21.CCn1c(-c2cnc(C)nc2)nc2c(O[C@H]3CN(C(=O)OC(C)(C)C)CC3(F)F)ncnc21 | 22
CCC(=O)N1CC[C@H](Oc2ncnc3c2nc(Oc2cnc(C)nc2)n3C)C1 | 380
CCn1ncc(-c2nc3c(O[C@H]4CCN(C(=O)c5nonc5C)C4)ncnc3n2C)c1C | 26
CCn1c(-c2cnc(C)nc2)nc2c(O[C@H]3CCN(C(=O)N4CCCCC4)C3)ncnc21 | 21
CCn1c(-c2cnc(C)nc2)nc2c(O[C@H]3CCN(c4nccs4)C3)ncnc21 | 44
Cc1n[nH]cc1-c1nc2c(O[C@H]3CCN(C(=O)OC(C)(C)C)C3)ncnc2n1C | 13
CCC(=O)N1CC[C@H](Oc2ncnc3c2nc(-c2cc(F)cc(NS(C)(=O)=O)c2)n3C)C1 | 10
CCn1c(-c2cnc(C)nc2C)nc2c(O[C@H]3CCN(C(=O)C4CC4)C3)ncnc21 | 44
CCn1c(-c2cnc(C)nc2)nc2c(O[C@H]3CCN(C(=O)C4[C@@H](C)[C@@H]4C)C3)ncnc21 (stereo not given in full) | 13
CCC(=O)N1CC[C@H](Oc2ncnc3c2nc(-c2ccc(C)nc2)n3C)C1 | 66
Cc1nn(C)cc1-c1nc2c(O[C@H]3CCN(C(=O)OC(C)(C)C)C3)ncnc2n1C | 1200
CCNC(=O)N1CC[C@H](Oc2ncnc3c2nc(-c2cnn(CC)c2C)n3C)C1 | 10
CCn1ncc(-c2nc3c(O[C@H]4CCN(C(=O)c5ocnc5C)C4)ncnc3n2C)c1C | 15
CCn1c(-c2cnc(C)nc2)nc2c(O[C@@H]3CN(C(=O)OC(C)(C)C)C[C@H]3O)ncnc21.CCn1c(-c2cnc(C)nc2)nc2c(O[C@H]3CN(C(=O)OC(C)(C)C)C[C@@H]3O)ncnc21 | 3.7
Cc1n[nH]c2ncc(-c3nc4c(O[C@H]5CCN(C(=O)OC(C)(C)C)C5)ncnc4n3C)cc12 | 4
CCn1c(-c2cnc(C)c(F)c2)nc2c(O[C@H]3CCN(C(=O)C4CC4)C3)ncnc21 | 4.3

Compound | IC50 [nM]
CCn1c(-c2cnc(C)nc2)nc2c(O[C@H]3CCN(c4cccc(F)c4)C3)ncnc21 | 2.2
CCn1ncc(-c2nc3c(O[C@H]4CCN(C(=O)c5ccnc(C)c5)C4)ncnc3n2C)c1C | 25
Cn1c(-c2ccc(N3CCCC3)nc2)nc2c(O[C@H]3CCN(C(=O)OC(C)(C)C)C3)ncnc21 | 590
CCn1ncc(-c2nc3c(O[C@H]4CCN(S(=O)(=O)C(C)C)C4)ncnc3n2C)c1C | 530
CCn1ncc(-c2nc3c(OC4CCC(C(=O)N5CCOCC5)C4)ncnc3n2C)c1C (stereo not given) | 220
CCn1ncc(-c2nc3c(OC4CCN(C(=O)OC(C)(C)C)CC4)ncnc3n2C)c1C | 610
CCC(=O)N1CC[C@H](Oc2ncnc3c2nc(-c2cnn(CC)c2C)n3C2CC2)C1 | 160
CCC(=O)N1CC[C@H](Oc2ncnc3c2nc(-c2cnc4[nH]nc(C)c4c2)n3C)C1 | 23
CCn1ncc(-c2nc3c(O[C@H]4CCN(C(=O)c5ncoc5C)C4)ncnc3n2C)c1C | 7.2
CCn1ncc(-c2nc3c(O[C@H]4CCN(c5cc(C(F)(F)F)ccn5)C4)ncnc3n2C)c1C | 37
CCn1c(-c2cnc(C)nc2)nc2c(O[C@H]3CCN(c4ccc5cnoc5c4)C3)ncnc21 | 11
CCn1c(-c2cnc(C)nc2)nc2c(O[C@H]3CCN(C(=O)C4CC(C)C4)C3)ncnc21 (stereo not given in full) | 1.3
CCn1ncc(-c2nc3c(O[C@H]4CCN(C(=O)c5cnn(C)c5)C4)ncnc3n2C)c1C | 14
CCn1ncc(-c2nc3c(O[C@H]4CCN(Cc5ccc[nH]5)C4)ncnc3n2C)c1C | 440
CCn1ncc(-c2nc3c(O[C@H]4CCN(C(=O)c5cnoc5C5CC5)C4)ncnc3n2C)c1C | 79
CCn1c(-c2cnn(-c3ccccc3)c2C)nc2c(O[C@H]3CCN(C(=O)C4CC4)C3)ncnc21 | < 1
CCOC(=O)N1CC[C@H](Oc2ncnc3c2nc(-c2cnn(CC)c2C)n3C)C1 | 33
CCC(=O)N1CC[C@H](Oc2ncnc3c2nc(-c2cnc(C(C)(C)C)s2)n3C)C1 | 1.6
CCn1c(-c2cnc(C)nc2)nc2c(O[C@H]3CCN(C(=O)OCCN(C)C)C3)ncnc21 | 38
CCn1ncc(-c2nc3c(O[C@H]4CCN(C(=O)C5CCCO5)C4)ncnc3n2C)c1C (stereo not given in full) | 12
CCn1c(-c2ccc(C(F)(F)F)cc2)nc2c(O[C@H]3CCN(C(=O)C4CC4)C3)ncnc21 | 3.4
CCn1c(-c2cnc(C(C)(C)C)s2)nc2c(O[C@H]3CCN(C(=O)OC(C)(C)C)C3)ncnc21 | 0.5
CCC(=O)N1CC[C@H](S(=O)(=O)c2ncnc3c2nc(-c2cnn(CC)c2C)n3C)C1 | 210

Compound | IC50 [nM]
CCn1c(C(=O)NC2CCCCC2)nc2c(O[C@H]3CCN(C(=O)OC(C)(C)C)C3)ncnc21 | 72
CCn1ncc(-c2nc3c(O[C@H]4CCN(C(=O)Oc5ccc(C)cc5)C4)ncnc3n2C)c1C | 340
CCn1ncc(-c2nc3c(S[C@H]4CCN(c5ncnc6sccc56)C4)ncnc3n2C)c1C | 5.5
CCC(=O)N1CC[C@H](Oc2ncnc3c2nc(-c2cnn4c2CCCC4)n3C)C1 | 2.4
CCn1c(-c2cnc(C)nc2)nc2c(O[C@H]3CCN(c4cc(C)ccn4)C3)ncnc21 | 4.1
CCn1c(-c2cnc(OC)c(C#N)c2)nc2c(O[C@H]3CCN(C(=O)C4CC4)C3)ncnc21 | 2.4
CCn1c(-c2cnc(OC)c(C)c2)nc2c(O[C@H]3CCN(C(=O)C4CC4)C3)ncnc21 | < 1
CCC(=O)N[C@H]1CC[C@H](Oc2ncnc3c2nc(-c2cnc(C)nc2)n3CC)CC1 | 330
CCn1c(-c2cnc(C)nc2)nc2c(O[C@H]3CCN(c4ccc(F)cc4)C3)ncnc21 | 18
CCn1ncc(-c2nc3c(O[C@H]4CCN(c5ccccn5)C4)ncnc3n2C)c1C | 680
CCn1ncc(-c2nc3c(O[C@H]4CCN(c5nccc(-c6ccco6)n5)C4)ncnc3n2C)c1C | 128
CCn1ncc(-c2nc3c(O[C@H]4CCN(S(=O)(=O)c5ccccc5)C4)ncnc3n2C)c1C | 360
CN(C)c1ccc(-c2nc3c(O[C@H]4CCN(C(=O)OC(C)(C)C)C4)ncnc3n2C)cn1 | 65
CCn1ncc(-c2nc3c(O[C@H]4CCN(C(=O)c5cocn5)C4)ncnc3n2C)c1C | 19
CCn1ncc(-c2nc3c(O[C@H]4CCN(C(=O)c5ccc(N6CCN(C)CC6)cc5)C4)ncnc3n2C)c1C | 110
CCn1ncc(-c2nc3c(O[C@H]4CCN(C(=O)C5CC5)C4)ncnc3n2C)c1C | 6.3
CCn1ncc(-c2nc3c(O[C@H]4CCN(C(=O)OC)C4)ncnc3n2C)c1C | 12
CCC(=O)N1CC[C@H](Oc2ncnc3c2nc(C2CC2)n3C)C1 | 580
CCC(=O)N1CC[C@H](Oc2ncnc3c2nc(-c2ccc(S(C)(=O)=O)cc2)n3C)C1 | 300
COc1ncc(-c2nc3c(O[C@H]4CCN(C(=O)OC(C)(C)C)C4)ncnc3n2C)cc1C | 2.6
CCn1c(-c2cnn3c2CCCC3)nc2c(O[C@H]3CCN(C(=O)C4CC4)C3)ncnc21 | < 1
